Here are results for 79 compounds from the METLIN SMRT retention time set (Domingo-Almenara et al. 2019).

Each structure is given as a SMILES string.

A short description of the data set: gradient 5% acetonitrile 3 min, to 50% in 2 min, to 85% in 15 min, held 3 min, 100 µL/min. To be noted: column: Zorbax Extend-C18 2.1 x 50 mm; eluents: water / acetonitrile, 0.1% formic acid. In outline:
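Retention time was recorded from adduct peaks, which were picked computationally and each inspected manually. Pure standards ran in mixtures of ~100 molecules on HPLC coupled to a quadrupole time-of-flight mass spectrometer, in positive and negative ionization mode, through a Zorbax Extend-C18 column (2.1 × 50 mm, 1.8 μm) at 100 μL/min. Eluents were water and acetonitrile, each with 0.1% formic acid.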
`CCC(C)NC(=O)CCNc1c(-c2ccc(C)cc2)nc2cnccn12` (centres undefined) registered an RP-LC retention time of 672 s.
With `COc1ccccc1CNC(=O)c1nnc(-c2ccc(S(=O)(=O)N(C)C)cc2)o1`, the RP-LC retention time is 852 s.
Turning to `CCOc1ccc(C(O)CN2CCN(c3ccccn3)CC2)cc1` (centres undefined), the RP-LC retention time worked out at 560 s.
Compound `O=C(NC1CCCCCC1)C1CCN(S(=O)(=O)c2cc(-c3noc(C4CCC4)n3)cs2)CC1` registered an RP-LC retention time of 1110 s.
The result for `Cc1cc(C)cc(NC(=O)C2CCCN(c3cc(=O)n(C)c(=O)n3C)C2)c1` (centres undefined) reads 783 s; that for `Cn1cc(C(=O)NCc2ccc(N3CCCCC3)cc2)c2cccnc21`, 576 s.
In turn, `Cc1cc2[nH]c(C(=O)Nc3cc(F)ccc3F)c(CN3CCOCC3)c2s1` came in with an RP-LC retention time of 730 s.
The value for `O=C(CN1C(=O)C2CCCCN2c2ccc(S(=O)(=O)N3CCCCC3)cc21)NC1CCCC1` (centres undefined) was 980 s; that for `CC(C)N1CCn2cc(S(=O)(=O)Nc3cc(F)cc(F)c3)cc2C1=O` was 794 s.
`CCc1ccccc1NC(=O)Cn1c(C(C)C)nc2c(c1=O)CCN(Cc1ccccc1)C2` showed an RP-LC retention time of 699 s.
The result for `COc1ccc(CCCOC(Cn2ccnc2)c2ccc(OC)cc2)cc1` (centres undefined) reads 785 s; that for `CSc1cccc(NC(=O)C2CCN(S(=O)(=O)c3cn(C(C)C)cn3)CC2)c1`, 812 s.
As for `Cc1ccc(N2CN(CC(=O)NCCC3=CCCCC3)S(=O)(=O)c3cccnc32)cc1`, the RP-LC retention time was 1050 s.
The result for `O=C(C1CCN(c2ncnc3c2oc2ccccc23)CC1)N1CCC(Cc2ccccc2)CC1` reads 995 s; that for `C=CCN(Cc1nc(-c2ccc(C)cc2)no1)C(=O)Nc1ccccc1C`, 650 s; that for `COc1ccc(-c2nnc(-c3cc(S(=O)(=O)N4CCOCC4)ccc3Cl)o2)cc1`, 950 s.
The result for `Cc1ccc(C)c(S(=O)(=O)N2CCc3nc(-c4ccc(F)cc4)ncc3C2)c1` reads 1200 s; that for `Clc1cc(-c2nc(-c3cccc(-c4ccn[nH]4)c3)no2)ccn1`, 949 s.
For the compound `Cc1cc(C)c(S(=O)(=O)N2CCCC2c2nc(-c3cccc(Cl)c3)no2)c(C)c1` (centres undefined), the RP-LC retention time was 1350 s.
Take `CC(C)c1noc(-c2cc(=O)n(CC(=O)Nc3cccc(C#N)c3)c3ccccc23)n1`: the RP-LC retention time turned out to be 967 s.
Regarding `Cc1nsc2ncc(C(=O)N3CCOCC3)c(N3CCC(C(=O)Nc4ccc(F)cc4Cl)CC3)c12`, the RP-LC retention time amounted to 811 s.
The result for `Cc1ccc(C(=O)N2CCCCC2c2nc(-c3cccnc3)no2)cn1` (centres undefined) reads 641 s.
The result for `CCn1c(=O)sc2cc(S(=O)(=O)N3CCC(C(=O)Nc4cc(C)cc(C)c4)CC3)ccc21` reads 932 s; that for `CN(C)C(=O)c1ccc2c(c1)N(CC(=O)Nc1ccc(F)cc1)C(=O)CO2`, 654 s.
In the case of `CCOC1CCN(C(=O)c2ccc(F)cc2)CC1`, the RP-LC retention time was 760 s.
The result for `Cc1ccccc1-c1nnc(COc2ccc(NC(=O)c3n[nH]c4c3CCCC4)cc2)o1` reads 975 s; that for `Cc1ccc(CNC(=O)C2CCN(Cc3cc4ccccc4n3Cc3ccccc3C)CC2)o1`, 800 s.
`Cc1cccc(CNC(=O)c2cn3cc(C)ccc3n2)c1`: the RP-LC retention time was 708 s.
The value for `Cc1ccc(C)c(NC(=O)N2CCCC(C)(C(=O)NCc3ccccc3)C2)c1` (centres undefined) was 967 s; that for `COc1ccc(OC)c(CN2CCn3c(nn(CC4CC4)c3=O)C2)c1` was 620 s.
Compound `O=C(C1CCN(c2ccc(Sc3cccc(F)c3)nn2)CC1)N1CCN(c2ccccn2)CC1` displayed an RP-LC retention time of 626 s.
Take `Cc1ccc(NC(=O)N2CCC(CC(=O)N3CCCCC3)CC2)cc1F`: the RP-LC retention time is 813 s.
The result for `CCC1CN(C(=O)N2CCC(C(=O)NCCN3CCN(C)CC3)CC2)c2cc(C)ccc2O1` (centres undefined) reads 619 s.
`Cc1ccccc1OCC(=O)N1CCN(C2=CC3=NCC(C)N3C=N2)CC1` (centres undefined): the RP-LC retention time came to 644 s.
In the case of `O=C1CCCN1Cc1noc(-c2ccccc2Cl)n1`, the RP-LC retention time is 770 s.
Consider `CCc1cccc(NC(=O)Cc2nnc(-c3cnccn3)o2)c1`, for which the RP-LC retention time is 736 s.
The value for `Cc1cccc(NC(=O)N2CCC3(CC2)NC(=O)c2ccccc2O3)c1C` was 775 s; that for `CCOCCCNC(=O)c1ccc(OCc2nnc(C(=O)Nc3ccccc3F)s2)cc1` was 853 s.
The value for `COc1ccccc1N1CCN(S(=O)(=O)c2cc3n(c2)CCCNC3=O)CC1` was 696 s; that for `O=C(c1ccc([N+](=O)[O-])o1)N1CC2CC(C1)c1cccc(=O)n1C2` (centres undefined) was 585 s.
The result for `Cc1cccc(NC(=O)Cn2ccc3ccc(-c4nnc(C)o4)cc32)c1` reads 814 s.
In turn, `COC(=O)c1cc(S(=O)(=O)N2CCCC2C(=O)Nc2c(Cl)cc(OC)cc2OC)cn1C` (centres undefined) yielded an RP-LC retention time of 930 s.
Take `O=C(O)c1ccc(-c2nnc3ccc(NC(=O)C4CCC4)cn23)cc1`: the RP-LC retention time was 683 s.
The result for `Cc1ccccc1Cn1ccnc1C(=O)N1CCNC(=O)C1` reads 616 s; that for `COc1ccc(-c2c(C(=O)O)nnn2-c2ccc3c(c2)OCO3)cc1`, 745 s.
On to `CN(Cc1ccc(Cl)cc1)Cc1cc(=O)n2ccccc2n1`, for which the RP-LC retention time turned out to be 602 s.
For `COc1cc2c(CCNC(C)=O)c[nH]c2cc1Cl`, the RP-LC retention time came to 754 s.
Consider `Cc1ccc(CNC(=O)c2c(C)oc3nc(C)nc(N4CCOCC4)c23)cc1`, for which the RP-LC retention time amounted to 787 s.
The result for `COc1ccc(-c2nc(-c3ccc4oc(C)nc4c3)no2)c(OC)c1` reads 976 s; that for `CCCNc1cc(N2CCC(CCC(=O)NCCC(C)C)CC2)ncn1`, 693 s; that for `CCc1ccc(C2=C(C)C(N3CCCN(C(=O)CCOC)CC3)=NS2(=O)=O)cc1`, 795 s.
As to `CCc1nc2ncc(-c3ccnc(N4CCN(C)CC4)n3)c(C)n2n1`, the RP-LC retention time was determined as 562 s.
The value for `Cc1cc(C)c2sc(N(CCCn3ccnc3)C(=O)C3COc4ccccc4O3)nc2c1` (centres undefined) was 667 s; that for `CCC(=O)NCCc1csc(C2CCN(C(=O)CC3CCCCC3)CC2)n1` was 765 s.
With `CCOc1ccc(-c2ccc(SCC)nn2)cc1`, the RP-LC retention time stood at 941 s.
Take `CCCCn1cc(S(=O)(=O)Nc2cc(F)ccc2C)c2cccnc21`: the RP-LC retention time was 995 s.
The result for `Cc1cc(C)n(Cc2ccc(C(=O)NCC3Cn4cccc4C(=O)N3C)o2)n1` (centres undefined) reads 634 s; that for `Cc1ccc(C)c(S(=O)(=O)N2CC(c3nc(Cc4ccccc4)no3)C2)c1`, 1040 s.
Compound `CN1CCN(C(=O)c2ccc(CN3CCN(Cc4ccc(F)cc4)C(=O)C3=O)cc2)CC1` had an RP-LC retention time of 592 s.
As to `Cc1ccc(-n2nc(N3CCCN(S(=O)(=O)c4ccccc4)CC3)ccc2=O)cc1C`, the RP-LC retention time is 947 s.
The result for `Cc1cc2c(=O)n(CC(=O)NCc3ccc(Cl)cc3)c3cccnc3n2n1` reads 714 s; that for `COc1ccc(C(=O)CC2(O)C(=O)Nc3ccc(C)cc32)c(OC)c1` (centres undefined), 685 s; that for `CC(C)(C)CC(=O)N1CCCC(C(=O)N2CCOCC2)C1` (centres undefined), 673 s.
In turn, `CC(C)(C)c1nnc(NC(=O)C2CC(=O)N(CCc3c[nH]c4ccc(Cl)cc34)C2)s1` (centres undefined) returned an RP-LC retention time of 831 s.
Compound `C[C@H]1CN(C(=O)c2cc(F)cc(F)c2)C[C@@H]1c1nc(-c2ccccc2)no1` yielded an RP-LC retention time of 1040 s.
The result for `Cc1ccc(S(=O)(=O)N2CC=C(c3cn(C)c4ncccc34)CC2)cc1C` reads 1080 s.
The value for `COc1ccc(-c2nnc(Cc3nc(-c4cccc(F)c4)no3)o2)cc1OC` was 911 s.
The result for `CCN1C(=O)c2ccccc2Oc2ccc(C(=O)N3CCN(c4cc(Cl)ccc4C)CC3)cc21` reads 1190 s.
As to `CCc1ccc(CNC(=O)c2cc3n(n2)CC(C)(C(=O)NC2CCCC2)N(CC)C3=O)cc1` (centres undefined), the RP-LC retention time was 865 s.
The value for `COc1cc(CN2CC(Oc3ccc(-c4noc(C5CC5)n4)cc3)C2)cc(OC)c1` was 772 s; that for `CCOC(=O)c1cccc(Nc2c(-c3ccc4c(c3)OCO4)nc3cnccn23)c1` was 834 s.
In turn, `O=C1c2ccc(O)cc2O[C@H](c2cc(O)c(O)c(O)c2)[C@H]1O` showed an RP-LC retention time of 617 s.
For the compound `O=C(CCc1ccc2cc[nH]c2c1)NCc1ccccc1`, the RP-LC retention time was determined as 794 s.
As to `Cc1ccc2oc(-c3nnc(C(=O)NCCN4CCOCC4)o3)c(C)c2c1`, the RP-LC retention time came to 667 s.
`Cc1ccc(-c2nnc(-c3nn(C)c4c3CN(S(=O)(=O)c3ccc(Cl)cc3)CC4)o2)cc1`: the RP-LC retention time is 1070 s.
The value for `Cn1cc(CN2CCC(C(=O)NCCc3ccco3)CC2)c2cc(Cl)ccc21` was 679 s.
The value for `O=C(c1ccc2c(c1)CCCN2S(=O)(=O)c1ccccc1)N1CCOCC1` was 787 s; that for `O=C(C1CCOC1)N1CCCn2nc(-c3ccc(Cl)cc3)cc2C1` (centres undefined) was 767 s; that for `Cn1cc(CN2CCC(C(=O)NCCCN3CCOCC3)CC2)c2cc(Cl)ccc21` was 580 s.
